In US7304077B2, “Chemical compounds” (AstraZeneca AB, priority 2001, dated 2007):

## NS(=O)(=O)c1cccc(C(=O)NCCN2CCC(Oc3ccc(Cl)c(Cl)c3)CC2)c1 [Example 22, 3-(aminosulfonyl)-N-{2-[4-(3,4-dichlorophenoxy)-1-piperidinyl]ethyl}benzamide]
  melting point: 168 to 169 °C

## Cc1c(Cl)ccc(OC2CCN(CCNC(=O)c3ccc(S(C)(=O)=O)s3)CC2)c1Cl [Example 35, N-{2-[4-(2,4-dichloro-3-methylphenoxy)-1-piperidinyl]ethyl}-5-(methylsulfonyl)-2-thiophenecarboxamide]
  melting point: 177 to 178 °C

## Cc1c(Cl)ccc(OC2CCN(CCNC(=O)c3ccccc3S(C)(=O)=O)CC2)c1Cl [Example 36, N-{2-[4-(2,4-dichloro-3-methylphenoxy)-1-piperidinyl]ethyl}-2-(methylsulfonyl)benzamide]
  melting point: 71 to 72 °C

## CS(=O)(=O)Cc1ccc(C(=O)NCCN2CCC(Oc3ccc(F)c(F)c3)CC2)cc1 [Example 44, N-{2-[4-(3,4-difluorophenoxy)-1-piperidinyl]ethyl}-4-[(methylsulfonyl)methyl]benzamide]
  melting point: 115 to 116 °C

## CCn1cc(C(=O)NCCN2CCC(Oc3ccc(Cl)c(Cl)c3)CC2)c(=O)c2ccc(C)nc21 [Example 23, N-{2-[4-(3,4-dichlorophenoxy)-1-piperidinyl]ethyl}-1-ethyl-7-methyl-4-oxo-1,4-dihydro[1,8]naphthyridine-3-carboxamide]
  melting point: 169 to 217 °C

## CS(=O)(=O)Cc1ccc(C(=O)NCCN2CCC(Oc3ccc(Cl)c(Cl)c3)CC2)cc1 [Compound 7 of Table I, N-{2-[4-(3,4-dichlorophenoxy)-1-piperidinyl]ethyl}-4-[(methylsulfonyl)methyl]benzamide]
  melting point: 179 to 181 °C

## CS(=O)(=O)c1cccc(C(=O)NCCN2CCC(Oc3ccc(Cl)c(Cl)c3)CC2)c1.Cl
  melting point: 219 °C

## CS(=O)(=O)c1ccc(C(=O)NCCN2CCC(Oc3ccc(Cl)c(Cl)c3)CC2)s1 [Example 27, N-{2-[4-(3,4-dichlorophenoxy)-1-piperidinyl]ethyl}-5-(methylsulfonyl)-2-thiophenecarboxamide]
  melting point: 142 to 143 °C

## CS(=O)(=O)c1cccc(C(=O)NCCN2CCC(Oc3ccc(F)cc3Cl)CC2)c1 [Example 33, N-{2-[4-(2-chloro-4-fluorophenoxy)-1-piperidinyl]ethyl}-3-(methylsulfonyl)benzamide]
  melting point: 50 to 51 °C

## O=C(NCCN1CCC(Oc2ccc(F)cc2Cl)CC1)c1ccc(-n2cccn2)nc1 [Example 32, N-{2-[4-(2-chloro-4-fluorophenoxy)-1-piperidinyl]ethyl}-6-(1H-pyrazol-1-yl)nicotinamide]
  melting point: 109 to 110 °C

## N#Cc1ccccc1C(=O)NCCN1CCC(Oc2ccc(F)c(F)c2)CC1 [Example 41, 2-cyano-N-{2-[4-(3,4-difluorophenoxy)-1-piperidinyl]ethyl}benzamide]
  melting point: 146 to 147 °C

## Cc1cc(OC2CCN(CCNC(=O)c3ccc(S(C)(=O)=O)cc3)CC2)ccc1Cl [Example 37, N-{2-[4-(4-chloro-3-methylphenoxy)-1-piperidinyl]ethyl}-4-(methylsulfonyl)benzamide]
  melting point: 123 to 124 °C

## N#Cc1cccc(C(=O)NCCN2CCC(Oc3ccc(F)c(F)c3)CC2)c1 [Example 43, 3-cyano-N-{2-[4-(3,4-difluorophenoxy)-1-piperidinyl]ethyl}benzamide]
  melting point: 106 to 107 °C

## CS(=O)(=O)c1ccc(C(=O)NCCN2CCC(Oc3ccc(F)c(F)c3)CC2)c(Cl)c1 [Example 42, 2-chloro-N-{2-[4-(3,4-difluorophenoxy)-1-piperidinyl]ethyl}-4-(methylsulfonyl)benzamide]
  melting point: 108 to 109 °C

## O=C(NCCN1CCC(Oc2ccc(Cl)c(Cl)c2)CC1)c1nnc(Nc2ccccc2Cl)o1 [Example 31, 5-(2-chloroanilino)-N-{2-[4-(3,4-dichlorophenoxy)-1-piperidinyl]ethyl}-1,3,4-oxadiazole-2-carboxamide]
  melting point: 161 to 162 °C

## CS(=O)(=O)c1ccc(C(=O)NCCN2CCC(Oc3ccc(Cl)c(Cl)c3)CC2)cc1 [Example 29, N-{2-[4-(3,4-dichlorophenoxy)-1-piperidinyl]ethyl}-4-(methylsulfonyl)benzamide]
  melting point: 100 to 101 °C

## NS(=O)(=O)c1cc(C(=O)NCCN2CCC(Oc3ccc(F)c(F)c3)CC2)ccc1Cl [Example 40, 3-(aminosulfonyl)-4-chloro-N-{2-[4-(3,4-difluorophenoxy)-1-piperidinyl]ethyl}benzamide]
  melting point: 80 to 81 °C

## O=C(NCCN1CCC(Oc2ccc(Cl)c(Cl)c2)CC1)c1ccc(-n2cccn2)nc1 [Example 28, N-{2-[4-(3,4-dichlorophenoxy)-1-piperidinyl]ethyl}-6-(1H-pyrazol-1-yl)nicotinamide]
  melting point: 154 to 155 °C

## Cc1c(Cl)ccc(OC2CCN(CCNC(=O)c3ccc(S(C)(=O)=O)cc3)CC2)c1Cl [Example 34, N-{2-[4-(2,4-dichloro-3-methylphenoxy)-1-piperidinyl]ethyl}-4-(methylsulfonyl)benzamide]
  melting point: 171 to 172 °C

## O=C(Cn1nnc(N2CCCC2)n1)NCCN1CCC(Oc2ccc(Cl)c(Cl)c2)CC1 [Compound 34 of Table II, N-{2-[4-(3,4-dichlorophenoxy)-1-piperidinyl]ethyl}-2-[5-(1-pyrrolidinyl)-2H-tetraazol-2-yl]acetamide]
  melting point: 114 to 116 °C

## CS(=O)(=O)Cc1cccc(C(=O)NCCN2CCC(Oc3ccc(Cl)c(Cl)c3)CC2)c1 [Compound 5 of Table I, N-{2-[4-(3,4-dichlorophenoxy)-1-piperidinyl]ethyl}-3-[(methylsulfonyl)methyl]benzamide]
  melting point: 112 to 114 °C

## COc1cccc(C(=O)N(C)CCN2CCC(Oc3ccc(F)c(F)c3)CC2)c1.Cl
  melting point: 218 °C

## CS(=O)(=O)Nc1cccc(C(=O)NCCN2CCC(Oc3ccc(Cl)c(Cl)c3)CC2)c1 [Compound 24 of Table I, N-{2-[4(3,4-dichlorophenoxy)-1-piperidinyl]ethyl}-3-[(methylsulfonyl)amino]benzamide]
  melting point: 150 to 151 °C

## CS(=O)(=O)c1cccc(C(=O)NCCCN2CCC(Oc3ccc(Cl)c(Cl)c3)CC2)c1.Cl
  melting point: 212 °C

## O=C(NCCN1CCC(Oc2ccc(Cl)c(Cl)c2)CC1)c1cn2ccccc2n1 [Example 30, N-{2-[4-(3,4-dichlorophenoxy)-1-piperidinyl]ethyl}imidazo[1,2-a]pyridine-2-carboxamide]
  melting point: 150 to 151 °C

## Cc1cc(OC2CCN(CCNC(=O)c3ccc(-n4cccn4)nc3)CC2)ccc1Cl [Example 38, N-{2-[4-(4-chloro-3-methylphenoxy)-1-piperidinyl]ethyl}-6-(1H-pyrazol-1-yl)nicotinamide]
  melting point: 183 to 184 °C
